Results: paper PMC9958325 (Nature Communications, 2023)
Values joined by “and” are separate entries in the source; they are usually repeats but may differ in a detail not shown here. Identical values can stand only once. Like-named read-outs stand apart in the source and are kept apart here.

What was measured:
[1] = system: SARS-CoV-2 UT-NCD1757-1N/ο BA.2.75; experiment: microbe, parasite or virus in culture; format: cell-based
[2] = system: SARS-CoV-2^WK521 in A549-ACE2-TMPRSS2 cells; experiment: Antiviral assay, A549-ACE2-TMPRSS2 cells, WK521; format: cell-based
[3] = system: SARS-CoV-2 TKYTS14631/ο BA.5; experiment: microbe, parasite or virus in culture; format: cell-based
[4] = system: HeLa-ACE2-TMPRSS2 cells; experiment: Intracellular concentrations of compounds (LC/MS), HeLa-ACE2-TMPRSS2 cells; settings: 6 h; for Intracellular amount relative to nirmatrelvir: HeLa-ACE2-TMPRSS2 cells; for Intracellular amount, individual: listed as TKB-0248
[5] = Pharmacokinetic study in PXB-mice (human liver-chimeric)
[6] = mouse, in vivo, ip, 120 mg/kg
[7] = system: SARS-CoV-2^WK-521; experiment: microbe, parasite or virus in culture; format: cell-based; design: EC95, individual assays / EC95, Average: unit: µM
[8] = system: SARS-CoV-2^WK521 in HeLa-ACE2-TMPRSS2 cells; experiment: Antiviral assay, HeLa-ACE2-TMPRSS2 cells, WK521; format: cell-based
[9] = system: SARS-CoV-2 TKYX00012/ο BA.1; experiment: microbe, parasite or virus in culture; format: cell-based
[10] = target: T1, human calpain (Homo sapiens, UniProt P07384); experiment: Human calpain activity assay; format: biochemical; settings: for %inhibition against humanCalpain: triplicate
T1 sequence (P07384 2-714): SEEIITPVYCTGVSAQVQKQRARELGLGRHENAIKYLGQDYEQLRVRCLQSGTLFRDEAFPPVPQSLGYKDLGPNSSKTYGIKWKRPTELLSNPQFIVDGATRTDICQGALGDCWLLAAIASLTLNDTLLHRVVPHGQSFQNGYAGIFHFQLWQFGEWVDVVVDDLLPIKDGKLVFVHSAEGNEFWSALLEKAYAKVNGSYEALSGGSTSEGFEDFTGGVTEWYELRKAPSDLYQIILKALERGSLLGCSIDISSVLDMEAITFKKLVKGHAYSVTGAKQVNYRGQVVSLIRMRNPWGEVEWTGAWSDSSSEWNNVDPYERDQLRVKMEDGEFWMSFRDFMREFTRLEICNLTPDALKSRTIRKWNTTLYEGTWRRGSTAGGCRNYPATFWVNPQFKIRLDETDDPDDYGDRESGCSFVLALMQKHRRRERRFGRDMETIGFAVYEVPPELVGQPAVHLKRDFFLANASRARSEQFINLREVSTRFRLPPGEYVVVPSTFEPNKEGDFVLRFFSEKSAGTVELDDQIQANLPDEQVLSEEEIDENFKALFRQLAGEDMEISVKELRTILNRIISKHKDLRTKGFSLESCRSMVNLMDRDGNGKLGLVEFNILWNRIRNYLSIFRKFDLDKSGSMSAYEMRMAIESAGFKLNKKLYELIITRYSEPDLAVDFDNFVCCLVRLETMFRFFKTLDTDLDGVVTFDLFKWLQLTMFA
T1 sequence (P04632 1-268 partner): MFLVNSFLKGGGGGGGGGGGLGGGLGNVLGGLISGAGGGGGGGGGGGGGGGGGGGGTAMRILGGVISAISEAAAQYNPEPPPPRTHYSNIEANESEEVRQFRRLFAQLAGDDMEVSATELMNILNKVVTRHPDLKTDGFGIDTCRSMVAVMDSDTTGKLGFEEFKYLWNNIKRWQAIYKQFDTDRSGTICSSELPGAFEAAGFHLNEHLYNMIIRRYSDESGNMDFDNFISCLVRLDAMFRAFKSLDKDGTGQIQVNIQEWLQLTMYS

[11] = system: SARS-CoV-2 TKYS02037/ο BA.2; experiment: microbe, parasite or virus in culture; format: cell-based

CC(C)(C)[C@H](NC(=O)C(F)(F)F)C(=O)N1C[C@H]2[C@@H]([C@H]1C(=S)N[C@@H](C[C@@H]1CCNC1=O)C(=O)c1nc3c(F)cccc3s1)C2(C)C [TKB248]
EC50 ([1]; read-out: EC50 against UT-NCD1757-1N/ο BA.2.75): 430 ± 91 nM | EC50 ([1]; read-out: EC50 ο BA2.75, individual assays): 430 nM and 320 nM and 250 nM | EC50 ([2]; SARS-CoV-2^WK521, read-out: EC50, A549-ACE2-TMPRSS2): 199 ± 5 nM | EC50 ([2]; source data, listed as TKB0248, read-out: EC50, A549-AEC2-TMPRSS2, individual assays): 200 nM and 204 nM and 193 nM | EC50 ([2]; source data, read-out: EC50, A549-AEC2-TMPRSS2, Average): 199 nM | EC50 ([3]; read-out: EC50 against TKYTS14631/ο BA.5): 70 ± 8 nM | EC50 ([3]; read-out: EC50 ο BA5, Average): 70.7 nM | EC50 ([3]; read-out: EC50 ο BA5, individual assays): 67.1 nM and 80 nM and 65 nM | Intracellular amount relative to nirmatrelvir ([4]; 50 µM): 318 fold | Intracellular amount relative to nirmatrelvir ([4]; 100 µM): 165 fold | Intracellular amount, avg ([4]; Hela ACE2 TMPRSS2, 10uM): 295.717 pmol(total) | Intracellular amount, individual ([4]; Hela ACE2 TMPRSS2, 10uM): 295.283 pmol(total) and 296.151 pmol(total) | Intracellular amount, avg ([4]; Hela ACE2 TMPRSS2, 50uM): 570.720 pmol(total) | Intracellular amount, individual ([4]; Hela ACE2 TMPRSS2, 50uM): 643.805 pmol(total) and 497.635 pmol(total) | Intracellular amount, avg ([4]; Hela ACE2 TMPRSS2, 100uM): 630.843 pmol(total) | Intracellular amount, individual ([4]; Hela ACE2 TMPRSS2, 100uM): 605.189 pmol(total) and 656.496 pmol(total) | Cmax ([5]; N = 3 male PXB-mouse, 10 mg/kg p.o.): 1,925¶ ng/mL | T1/2 ([5]; N = 3 male PXB-mouse, 10 mg/kg, oral (p.o.) value for TKB245): 4.34¶ h | Plasma concentration ([5]; PXB-mice, i.v. 10 mg/kg, 10 min, individual mice, listed as TKB0248, 10 mg/kg): 8186.6 ng/mL and 8038.7 ng/mL and 9327.7 ng/mL | Plasma concentration ([5]; PXB-mice, i.v. 10 mg/kg, 0.17 hr, individual mice, listed as TKB0248, 10 mg/kg): 8190 ng/mL and 8040 ng/mL and 9330 ng/mL | Plasma concentration ([5]; PXB-mice, i.v. 10 mg/kg, 60 min, individual mice, listed as TKB0248, 10 mg/kg): 3193.2 ng/mL and 4290.6 ng/mL and 4927 ng/mL | Plasma concentration ([5]; PXB-mice, i.v. 10 mg/kg, 1 hr, individual mice, listed as TKB0248, 10 mg/kg): 3190 ng/mL and 4290 ng/mL and 4930 ng/mL | Plasma concentration ([5]; PXB-mice, i.v. 10 mg/kg, 240 min, individual mice, listed as TKB0248, 10 mg/kg): 955 ng/mL and 1072.2 ng/mL and 1659.6 ng/mL | Plasma concentration ([5]; PXB-mice, i.v. 10 mg/kg, 4 hr, individual mice, listed as TKB0248, 10 mg/kg): 960 ng/mL and 1070 ng/mL and 1660 ng/mL | Plasma concentration ([5]; PXB-mice, i.v. 10 mg/kg, 480 min, individual mice, listed as TKB0248, 10 mg/kg): 290 ng/mL and 301.5 ng/mL and 497.6 ng/mL | Plasma concentration ([5]; PXB-mice, i.v. 10 mg/kg, 8 hr, individual mice, listed as TKB0248, 10 mg/kg): 290 ng/mL and 300 ng/mL and 500 ng/mL | Plasma concentration ([5]; PXB-mice, i.v. 10 mg/kg, 1440 min, individual mice, listed as TKB0248, 10 mg/kg): 13.9 ng/mL and 20.8 ng/mL and 20 ng/mL | Plasma concentration ([5]; PXB-mice, i.v. 10 mg/kg, 24 hr, individual mice, listed as TKB0248, 10 mg/kg): 0.01 µg/ml and 0.02 µg/ml (2×) | Plasma concentration ([5]; PXB-mice, p.o. 10 mg/kg, 10 min, individual mice, listed as TKB0248, 10 mg/kg): 803.8 ng/mL and 639.6 ng/mL and 800.1 ng/mL | Plasma concentration ([5]; PXB-mice, p.o. 10 mg/kg, 0.17 hr, individual mice, listed as TKB0248, 10 mg/kg): 0.8 µg/ml (2×) and 0.64 µg/ml | Plasma concentration ([5]; PXB-mice, p.o. 10 mg/kg, 60 min, individual mice, listed as TKB0248, 10 mg/kg): 2400.6 ng/mL and 1592.1 ng/mL and 1781.9 ng/mL | Plasma concentration ([5]; PXB-mice, p.o. 10 mg/kg, 1 hr, individual mice, listed as TKB0248, 10 mg/kg): 2400 ng/mL and 1590 ng/mL and 1780 ng/mL | Plasma concentration ([5]; PXB-mice, p.o. 10 mg/kg, 240 min, individual mice, listed as TKB0248, 10 mg/kg): 1886.1 ng/mL and 944.6 ng/mL and 788.3 ng/mL | Plasma concentration ([5]; PXB-mice, p.o. 10 mg/kg, 4 hr, individual mice, listed as TKB0248, 10 mg/kg): 1890 ng/mL and 940 ng/mL and 790 ng/mL | Plasma concentration ([5]; PXB-mice, p.o. 10 mg/kg, 480 min, individual mice, listed as TKB0248, 10 mg/kg): 645.5 ng/mL and 263.6 ng/mL and 711 ng/mL | Plasma concentration ([5]; PXB-mice, p.o. 10 mg/kg, 8 hr, individual mice, listed as TKB0248, 10 mg/kg): 650 ng/mL and 260 ng/mL and 710 ng/mL | Plasma concentration ([5]; PXB-mice, p.o. 10 mg/kg, 1440 min, individual mice, listed as TKB0248, 10 mg/kg): 66.2 ng/mL and 80.3 ng/mL and 54.4 ng/mL | Plasma concentration ([5]; PXB-mice, p.o. 10 mg/kg, 24 hr, individual mice, listed as TKB0248, 10 mg/kg): 70 ng/mL and 80 ng/mL and 50 ng/mL | Oral F ([5]; male PXB-mouse 10 mg/kg i.v. and p.o., dose-normalized AUC ratio, 10 mg/kg): 72% and 72¶ % | Plasma concentration ([5]; p.o., 10 min, individual animals (3 per time point), LC/MS/MS, listed as TKB0248): 803.78 ng/mL and 639.58 ng/mL and 800.12 ng/mL | Plasma concentration ([5]; p.o., 60 min, individual animals (3 per time point), LC/MS/MS, listed as TKB0248): 2400.63 ng/mL and 1592.07 ng/mL and 1781.87 ng/mL | Plasma concentration ([5]; p.o., 240 min, individual animals (3 per time point), LC/MS/MS, listed as TKB0248): 1886.06 ng/mL and 944.61 ng/mL and 788.27 ng/mL | Plasma concentration ([5]; p.o., 480 min, individual animals (3 per time point), LC/MS/MS, listed as TKB0248): 645.53 ng/mL and 263.61 ng/mL and 711.03 ng/mL | Plasma concentration ([5]; p.o., 1440 min, individual animals (3 per time point), LC/MS/MS, listed as TKB0248): 66.21 ng/mL and 80.35 ng/mL and 54.38 ng/mL | Body weights and survival rates [6]: no significant changes were recorded | EC95, Average [7]: 0.8712 | EC95, individual assays [7]: 0.89 and 0.81 and 0.885 and 0.9 | SARS-CoV2 RNA VeroE6 cell-based assay EC95 [7]: 870 ± 40 nM | EC50 ([7]; read-out: EC50, Average): 225 nM | EC50 ([7]; read-out: EC50, VeroE6 + 2 µM CP100356): 30 ± 30 nM | EC50 ([7]; read-out: EC50, VeroE6 with CP100356, Average): 35 nM | EC50 ([7]; read-out: EC50, VeroE6 with CP100356, individual assays): 23 nM and 65 nM and 17 nM | EC50 ([7]; read-out: EC50, individual assays): 310 nM and 230 nM and 240 nM and 120 nM | EC50 ([7]; read-out: SARS-CoV2 RNA VeroE6 cell-based assay EC50): 220 ± 80 nM | EC50 ([8]; SARS-CoV-2^WK521, read-out: EC50, HeLa-ACE2-TMPRSS2): 160 ± 75 nM | EC50 ([8]; source data, listed as TKB0248, read-out: EC50, HeLa-AEC2-TMPRSS2, individual assays): 230 nM and 80 nM and 170 nM | EC50 ([9]; read-out: EC50 against KTKYX00012/ο BA.1): 282 ± 43 nM | EC50 ([9]; read-out: EC50 ο BA1, Average): 282 nM | EC50 ([9]; read-out: EC50 ο BA1, individual assays): 290 nM and 235 nM and 320 nM | Effect on human calpain (in words) [10]: neither of human cysteine enzymes, cathepsin L and calpain, were significantly affected | %inhibition against humanCalpain ([10]; 0.000128 µM): 0% | %inhibition against humanCalpain ([10]; 0.00064 µM): 0% | %inhibition against humanCalpain ([10]; 0.0032 µM): 0% | %inhibition against humanCalpain ([10]; 0.08 µM): 0% | %inhibition against humanCalpain ([10]; 0.4 µM): 0% | %inhibition against humanCalpain ([10]; 2 µM): 1% | IC50 ([10]; 60 minute incubation, mean ± 1 S.D., n=3, read-out: IC50, human calpains): > 2000 nM | EC50 ([11]; read-out: EC50 against TKYVS2037/ο BA.2): 210 ± 87 nM | EC50 ([11]; read-out: EC50 ο BA2, individual assays): 150 nM
